Tests used:
human D2R/β-arrestin [1] = target: T1, human D2R/β-arrestin (Homo sapiens (Human), UniProt P14416); experiment: cell-based; conditions: cAMP Antagonist
human D2R/β-arrestin [2] = target: T1, human D2R/β-arrestin; experiment: cell-based; conditions: β-arrestin Antagonist
Protocol: Cells were prepared for assays by growing cultures for up to 2 weeks (from about 6-20 passages). A vial of frozen cells was thawed in a water bath held at 37° C. The cells were then transferred into a 50 ml tube with 10 ml growth media. The vial was rinsed with growth media and the contents transferred to the 50 ml tube. The 50 ml tube was centrifuged at 1200 rpm for 5 minutes at room temperature. […] When the cells reached about 90% confluence (approximately 3 days between passages), the cells were passaged and used for either the agonist or antagonist assays as described below.
The cells were prepared for β-arrestin assays as described above. The assays were performed using a PathHunter® β-Arrestin Detecting Kit (DiscoveRX). The cells were grown on 225 mm dishes, then washed once with 1×PBS (Cellgro), followed by digestion with 2.5 ml 1× Detachment reagent (DRX 92-0009) for approximately 2 minutes.

human D2R/β-arrestin [3] = target: T1, human D2R/β-arrestin; experiment: Gi/cAMP agonist assay (Lance Ultra cAMP, forskolin); assay type: cell-based; conditions: CHO-K1 cells expressing human D2R/β-arrestin; agonist mode, 2.5 μM forskolin
Protocol: Eu-cAMP tracer solution (10 μl, PerkinElmer, 360 μl of Tracer in 17.64 ml kit buffer) and ULight-anti-cAMP solution (10 μl, 120 μL antibody in 17.88 ml kit buffer) was then added to each well.

human D2R/β-arrestin [4] = target: T1, human D2R/β-arrestin; experiment: β-arrestin agonist assay (PathHunter); assay type: cell-based; conditions: CHO-K1 cells expressing human D2R/β-arrestin; agonist mode
Protocol: The detection reagent (9.6 μL, Buffer:Emerald II:Galactor-Star in a 19:5:1 ratio, i.e., 14.06 mL:3.7 mL:0.74 mL=18.5 mL) was then added to the agonist plates.

[5] = CHO-K1 cells expressing human D2R/β-arrestin, antagonist mode, 2.5 μM forskolin and 2.7 nM quinpirole
[6] = CHO-K1 cells expressing human D2R/β-arrestin, antagonist mode, quinpirole 130 nM

T1 sequence (P14416 whole entry): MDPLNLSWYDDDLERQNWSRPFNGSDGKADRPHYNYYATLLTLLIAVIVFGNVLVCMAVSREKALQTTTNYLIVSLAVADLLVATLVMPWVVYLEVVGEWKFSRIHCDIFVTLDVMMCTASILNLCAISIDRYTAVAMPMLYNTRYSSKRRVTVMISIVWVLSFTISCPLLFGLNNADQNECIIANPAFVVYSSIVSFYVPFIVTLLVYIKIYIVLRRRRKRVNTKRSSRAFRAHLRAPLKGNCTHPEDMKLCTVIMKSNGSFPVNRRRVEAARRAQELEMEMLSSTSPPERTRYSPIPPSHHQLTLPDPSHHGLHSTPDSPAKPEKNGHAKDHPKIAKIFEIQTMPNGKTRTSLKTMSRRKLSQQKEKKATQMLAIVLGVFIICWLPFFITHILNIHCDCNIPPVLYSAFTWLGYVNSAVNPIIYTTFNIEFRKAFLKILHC

| SMILES | IC50 (human D2R/β-arrestin [1]; [5]) | IC50 (human D2R/β-arrestin [2]; [6]) | EC50 (human D2R/β-arrestin [3]) | EC50 (human D2R/β-arrestin [4]) | IC50 (human D2R/β-arrestin [1]) | IC50 (human D2R/β-arrestin [2]) |
| --- | --- | --- | --- | --- | --- | --- |
| C[C@@]1(O)C[C@H]2CC[C@@H](C1)N2CCOc1ccccc1C(F)(F)F [Compound 196, (1R,3s,5S)-3-methyl-8-(2-(2-(trifluoromethyl)phenoxy)ethyl)-8-azabicyclo[3.2.1]octan-3-ol] | 1000 to 10000 nM | 10000 to 30000 nM | > 30000 nM | > 30000 nM | – | – |
| CNC(=O)C1(C)CCN(CCOc2ccccc2C(F)(F)F)CC1 [Compound 198, N,4-dimethyl-1-(2-(2-(trifluoromethyl)phenoxy)ethyl)piperidine-4-carboxamide] | < 100 nM | < 100 nM | > 30000 nM | > 30000 nM | – | – |
| CNC(=O)C1(C)CCN(CCOc2ccccc2)CC1 [Compound 199, N, 4-dimethyl-1-(2-phenoxyethyl)piperidine-4-carboxamide] | > 30000 nM | 1000 to 10000 nM | 100 to 1000 nM | > 30000 nM | – | – |
| CNC(=O)C1(C)CCN(CC2COc3ccccc3O2)CC1 (stereo not shown) [Compound 202, 1-((2,3-dihydrobenzo[b][1,4]dioxin-2-yl)methyl)-N,4-dimethylpiperidine-4-carboxamide] | 100 to 1000 nM | 100 to 1000 nM | < 100 nM | > 30000 nM | – | – |
| CC1(C(=O)NC2CC2)CCN(CC2COc3ccccc3O2)CC1 (stereo not shown) [Compound 203, N-cyclopropyl-1-((2,3-dihydrobenzo[b][1,4]dioxin-2-yl)methyl)-4-methylpiperidine-4-carboxamide] | 1000 to 10000 nM | 100 to 1000 nM | < 100 nM | > 30000 nM | – | – |
| CC1(C(=O)Nc2ccccc2)CCN(CC2COc3ccccc3O2)CC1 (stereo not shown) [Compound 204, 1-((2,3-dihydrobenzo[b][1,4]dioxin-2-yl)methyl)-4-methyl-N-phenylpiperidine-4-carboxamide] | 100 to 1000 nM | 1000 to 10000 nM | 100 to 1000 nM | > 30000 nM | – | – |
| CNCC1(C)CCN(C[C@H]2COc3ccccc3O2)CC1 [Compound 207, (S)-1-(1-((2,3-dihydrobenzo[b][1,4]dioxin-2-yl)methyl)-4-methylpiperidin-4-yl)-N-methylmethanamine] | > 30000 nM | 1000 to 10000 nM | 1000 to 10000 nM | 1000 to 10000 nM | – | – |
| CC1(NC(=O)C(F)(F)F)CCN(C[C@H]2COc3ccccc3O2)CC1 [Compound 212, (S)—N-(1-((2,3-dihydrobenzo[b][1,4]dioxin-2-yl)methyl)-4-methylpiperidin-4-yl)-2,2,2-trifluoroacetamide] | > 30000 nM | 100 to 1000 nM | < 100 nM | 1000 to 10000 nM | – | – |
| CC(=O)N(C)C1(C)CCN(C[C@H]2COc3ccccc3O2)CC1 [Compound 213, (S)—N-(1-((2,3-dihydrobenzo[b][1,4]dioxin-2-yl)methyl)-4-methylpiperidin-4-yl)-N-methylacetamide] | > 30000 nM | > 30000 nM | 1000 to 10000 nM | > 30000 nM | – | – |
| CN(C1CCCCC1)C1(C)CCN(CCOc2ccccc2C(F)(F)F)CC1 [Compound 217, N-cyclohexyl-N,4-dimethyl-1-(2-(2-(trifluoromethyl)phenoxy)ethyl)piperidin-4-amine] | – | – | 100 to 1000 nM | > 30000 nM | 1000 to 10000 nM | 1000 to 10000 nM |
| OC1(Cc2ccccc2F)CCN(CCOc2ccccc2)C1 (stereo not shown) [Compound 300, 3-(2-fluorobenzyl)-1-(2-phenoxyethyl)pyrrolidin-3-ol, reference compound] | > 30000 nM | 10000 to 30000 nM | 100 to 1000 nM | > 30000 nM | – | – |
| C#CC1(O)CCN(CCOc2ccccc2C(F)(F)F)CC1 [Compound 302, 4-ethynyl-1-(2-(2-(trifluoromethyl)phenoxy)ethyl)piperidin-4-ol, reference compound] | < 100 nM | < 100 nM | > 30000 nM | > 30000 nM | – | – |
| CC1(N)CCN(C[C@H]2COc3ccccc3O2)CC1 [Compound 303, reference compound] | > 30000 nM | 10000 to 30000 nM | 100 to 1000 nM | > 30000 nM | – | – |
| CC1(Oc2cccc([N+](=O)[O-])c2)CCN(CCOc2ccccc2)C1 (stereo not shown) [Example 40, 3-Methyl-3-(3-nitrophenoxy)-1-(2-phenoxyethyl)pyrrolidine] | > 30000 nM | 1000 to 10000 nM | 100 to 1000 nM | > 30000 nM | – | – |

Continued, in another order:

| IC50 (human D2R/β-arrestin [1]; [5]) | IC50 (human D2R/β-arrestin [2]; [6]) | EC50 (human D2R/β-arrestin [3]) | EC50 (human D2R/β-arrestin [4]) | SMILES | IC50 (human D2R/β-arrestin [1]) | IC50 (human D2R/β-arrestin [2]) |
| --- | --- | --- | --- | --- | --- | --- |
| 1000 to 10000 nM | 100 to 1000 nM | 100 to 1000 nM | > 30000 nM | COc1ccccc1OCCN1CCC(C)(Oc2ccc(Cl)cc2)CC1 [Compound 188, 4-(4-chlorophenoxy)-1-(2-(2-methoxyphenoxy)ethyl)-4-methylpiperidine] | – | – |
| 1000 to 10000 nM | 1000 to 10000 nM | 1000 to 10000 nM | > 30000 nM | COc1cc(F)c(F)cc1OCCN1CCC(C)(Oc2ccc(Cl)cc2)CC1 [Compound 189, 4-(4-chlorophenoxy)-1-(2-(4,5-difluoro-2-methoxyphenoxy)ethyl)-4-methylpiperidine] | – | – |
| 100 to 1000 nM | 1000 to 10000 nM | 100 to 1000 nM | > 30000 nM | CC(C)Oc1ccc(F)cc1OCCN1CCC(C)(Oc2ccc(Cl)cc2)CC1 [Compound 190, 4-(4-chlorophenoxy)-1-(2-(5-fluoro-2-isopropoxyphenoxy)ethyl)-4-methylpiperidine] | – | – |
| 100 to 1000 nM | 1000 to 10000 nM | > 30000 nM | > 30000 nM | CC(C)Oc1cc(F)ccc1OCCN1CCC(C)(Oc2ccc(Cl)cc2)CC1 [Compound 191, 4-(4-chlorophenoxy)-1-(2-(4-fluoro-2-isopropoxyphenoxy)ethyl)-4-methylpiperidine] | – | – |
| 100 to 1000 nM | 1000 to 10000 nM | 1000 to 10000 nM | > 30000 nM | CC(C)C1(Oc2ccc(Cl)cc2)CCN(CCOc2ccccc2C(F)(F)F)CC1 [Compound 192, 4-(4-chlorophenoxy)-4-isopropyl-1-(2-(2-(trifluoromethyl)phenoxy)ethyl)piperidine] | – | – |
| > 30000 nM | 1000 to 10000 nM | < 100 nM | 1000 to 10000 nM | C#CC1(Oc2ccc(Cl)cc2)CCN(CCOc2ccccc2C(F)(F)F)CC1 [Compound 193, 4-(4-chlorophenoxy)-4-ethynyl-1-(2-(2-(trifluoromethyl)phenoxy)ethyl)piperidine] | – | – |
| > 30000 nM | 1000 to 10000 nM | < 100 nM | 100 to 1000 nM | C#CC1(Oc2ccccc2)CCN(CCOc2ccccc2C(F)(F)F)CC1 [Compound 194, 4-ethynyl-4-phenoxy-1-(2-(2-(trifluoromethyl)phenoxy)ethyl)piperidine] | – | – |
| > 30000 nM | > 30000 nM | > 30000 nM | > 30000 nM | CC1(Oc2ccc(Cl)cc2)CCN(CCn2cccc(C(F)(F)F)c2=O)CC1 [Compound 195, 1-(2-(4-(4-chlorophenoxy)-4-methylpiperidin-1-yl)ethyl)-3-(trifluoromethyl)pyridin-2(1H)-one] | – | – |
| 100 to 1000 nM | 1000 to 10000 nM | 100 to 1000 nM | > 30000 nM | CNC(=O)C1(C)CCN(CCOc2ccccc2F)CC1 [Compound 200, 1-(2-(2-fluorophenoxy)ethyl)-N,4-dimethylpiperidine-4-carboxamide] | – | – |
| 100 to 1000 nM | 1000 to 10000 nM | > 30000 nM | > 30000 nM | CNC(=O)C1(C)CCN(CCOc2ccccc2OC)CC1 [Compound 201, 1-(2-(2-methoxyphenoxy)ethyl)-N,4-dimethylpiperidine-4-carboxamide] | – | – |
| 1000 to 10000 nM | 1000 to 10000 nM | 1000 to 10000 nM | > 30000 nM | OCC1(Cc2ccc(Cl)cc2)CCN(CCOc2ccccc2C(F)(F)F)CC1 [Compound 214, (4-(4-chlorobenzyl)-1-(2-(2-(trifluoromethyl)phenoxy)ethyl)piperidin-4-yl)methanol] | – | – |
| 10000 to 30000 nM | 1000 to 10000 nM | 1000 to 10000 nM | 1000 to 10000 nM | CC1(Cc2ccc(Cl)cc2)CCN(CCOc2ccccc2C(F)(F)F)CC1 [Compound 215, 4-(4-chlorobenzyl)-4-methyl-1-(2-(2-(trifluoromethyl)phenoxy)ethyl)piperidine] | – | – |
| > 30000 nM | 10000 to 30000 nM | > 30000 nM | > 30000 nM | FC(F)(F)c1ccccc1OCCN1CCC2(CC1)CC2c1ccc(Cl)cc1 (stereo not shown) [Compound 216, 1-(4-chlorophenyl)-6-(2-(2-(trifluoromethyl)phenoxy)ethyl)-6-azaspiro[2.5]octane] | – | – |
| 100 to 1000 nM | 100 to 1000 nM | > 30000 nM | > 30000 nM | CC1(C(=O)Nc2ccccc2)CCN(CCOc2ccccc2C(F)(F)F)CC1 [Compound 219, 4-methyl-N-phenyl-1-(2-(2-(trifluoromethyl)phenoxy)ethyl)piperidine-4-carboxamide] | – | – |
| 100 to 1000 nM | 100 to 1000 nM | 100 to 1000 nM | > 30000 nM | CC1(C(=O)Nc2ccccc2)CCN(CCOc2ccccc2F)CC1 [Compound 220, 1-(2-(2-fluorophenoxy)ethyl)-4-methyl-N-phenylpiperidine-4-carboxamide] | – | – |
| 100 to 1000 nM | 1000 to 10000 nM | > 30000 nM | > 30000 nM | COc1ccccc1OCCN1CCC(C)(O)CC1 [Compound 301, reference compound] | – | – |
| > 30000 nM | 10000 to 30000 nM | 100 to 1000 nM | > 30000 nM | CC1(Oc2cccc(N)c2)CCN(CCOc2ccccc2)C1 (stereo not shown) [Example 41, 3-((3-methyl-1-(2-phenoxyethyl)pyrrolidin-3-yl)oxy)aniline] | – | – |
